Laboratory results taken from patent US11274097B2, “2-(het)aryl-substituted condensed bicyclic heterocycle derivatives as pest control agents” (BAYER CROPSCIENCE AKTIENGESELLSCHAFT, priority 2014, dated 2022).

Experiments:
[1] = log P by HPLC on a reversed-phase column (C 18), EEC Directive 79/831 Annex V.A8; assay type: physicochemical; settings: 55° C.
How it was run: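 Reversed-phase C18 HPLC at 55 °C, 10→95% acetonitrile linear gradient. log P (HCOOH) run at pH 2.7 with 0.1% formic acid; log P (neutral) at pH 7.8 with 0.001 M ammonium hydrogencarbonate. Calibrated by retention-time interpolation between unbranched C3–C16 alkan-2-ones of known log P.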

Boophilus microplus = Boophilus microplus injection test (BOOPMI Inj); assay type: in vivo; settings: application rate 20 μg/animal; injection into engorged adult female cattle ticks; after 7 days
Description: Boophilus microplus—Injection Test (BOOPMI Inj)
Solvent: dimethyl sulphoxide
To produce an appropriate active ingredient formulation, 10 mg of active ingredient are mixed with 0.5 ml of solvent and the concentrate is diluted with solvent to the desired concentration.
1 μl of the active ingredient solution is injected into the abdomen of 5 engorged adult female cattle ticks (Boophilus microplus). The animals are transferred into dishes and kept in a climate-controlled room.
Efficacy is assessed after 7 days by laying of fertile eggs. Eggs which are not visibly fertile are stored in a climate-controlled cabinet until the larvae hatch after about 42 days. An efficacy of 100% means that none of the ticks has laid any fertile eggs; 0% means that all the eggs are fertile.

Lucilia cuprina = Lucilia cuprina test (LUCICU); assay type: in vivo; settings: application rate 100 ppm; L1 larvae; after 2 days
Description: Lucilia cuprina Test (LUCICU) Solvent: dimethyl sulphoxide To produce an appropriate active ingredient formulation, 10 mg of active ingredient are mixed with 0.5 ml of dimethyl sulphoxide, and the concentrate is diluted with water to the desired concentration. About 20 L1 larvae of the Australian sheep blowfly (Lucilia cuprina) are transferred into a test vessel containing minced horsemeat and the active ingredient preparation of the desired concentration. After 2 days, the kill in % is determined. 100% means that all the larvae have been killed; 0% means that none of the larvae have been killed.

Musca domestica = Musca domestica test (MUSCDO); assay type: in vivo; settings: application rate 20 ppm; adult houseflies; after 2 days
Description: Musca domestica Test (MUSCDO) Solvent: dimethyl sulphoxide To produce an appropriate active ingredient formulation, 10 mg of active ingredient are mixed with 0.5 ml of dimethyl sulphoxide, and the concentrate is diluted with water to the desired concentration. Vessels containing a sponge treated with sugar solution and the active ingredient formulation of the desired concentration are populated with 10 adult houseflies (Musca domestica). After 2 days, the kill in % is determined. 100% means that all of the flies have been killed; 0% means that none of the flies have been killed.

Myzus persicae [2] = assay: Myzus persicae spray test (MYZUPE), Chinese cabbage leaf discs; assay type: in vivo; settings: application rate 500 g/ha, after 6 days
Description: Myzus persicae—Spray Test (MYZUPE)
Solvent: 78 parts by weight of acetone • • 1.5 parts by weight of dimethylformamide
(§1) Emulsifier: alkylaryl poly glycol ether
(§2) To produce an appropriate active ingredient formulation, 1 part by weight of active ingredient is dissolved using the stated parts by weight of solvent and made up with water containing an emulsifier concentration of 1000 ppm until the desired concentration is attained. To produce further test concentrations, the preparation is diluted with emulsifier-containing water.
Discs of Chinese cabbage leaves (Brassica pekinensis) infested by all stages of the green peach aphid (Myzus persicae) are sprayed with an active ingredient formulation of the desired concentration.
After 6 days, the efficacy in % is determined. 100% means that all the aphids have been killed; 0% means that none of the aphids have been killed.

Phaedon cochleariae = Phaedon cochleariae spray test (PHAECO); assay type: in vivo; settings: application rate 500 g/ha; larvae; after 7 days
How it was run: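 Chinese cabbage leaf discs sprayed with compound in acetone/dimethylformamide with alkylaryl polyglycol ether emulsifier in water, dried, then infested with mustard beetle larvae. Efficacy scored after 7 days as % larvae killed (100% = all dead, 0% = none).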

Spodoptera frugiperda = Spodoptera frugiperda spray test (SPODFR); assay type: in vivo; settings: application rate 500 g/ha; maize leaf discs; after 7 days
Description: Spodoptera frugiperda—Spray Test (SPODFR)
Solvent: 78.0 parts by weight of acetone • • 1.5 parts by weight of dimethylformamide
(§3) Emulsifier: alkylaryl polyglycol ether
as §2
Leaf discs of maize (Zea mays) are sprayed with an active ingredient formulation of the desired concentration and, after drying, populated with caterpillars of the armyworm (Spodoptera frugiperda).
After 7 days, the efficacy in % is determined. 100% means that all the caterpillars have been killed; 0% means that no caterpillars have been killed.

Myzus persicae [3] = assay: Myzus persicae contact test (MYZUPE c); assay type: in vivo; settings: 2.4 g/ha, 14 dat
Description: Myzus persicae—Contact Test (MYZUPE c)
(§4) Solvent: 7 parts by weight of dimethylformamide
as §1
(§5) To produce an appropriate active ingredient formulation, 1 part by weight of active ingredient is dissolved using the stated parts by weight of solvent and made up with water containing an emulsifier concentration of 1000 ppm until the desired concentration is attained. To produce further test concentrations, the preparation is diluted with emulsifier-containing water. In the event that addition of ammonium salts or/and penetrants (rapeseed oil methyl ester) is required, these are each pipetted in a concentration of 1000 ppm after the finished formulation solution has been diluted.
One-leaved bell pepper plants (Capsicum annuum) heavily infested by the green peach aphid (Myzus persicae) are treated by spraying the underside of the leaf with the active ingredient formulation in the desired concentration.
(§6) After the desired time, the kill in % is determined. 100% means that all the aphids have been killed and 0% means that none of the aphids have been killed.

Myzus persicae [4] = assay: Myzus persicae translaminar test (MYZUPE t); assay type: in vivo; settings: 14 dat
Description: Myzus persicae—Translaminar Test (MYZUPE t)
as §4, §1, §5
One-leaved bell pepper plants (Capsicum annuum) heavily infested by the green peach aphid (Myzus persicae) are treated by spraying the top side of the leaf with the active ingredient formulation in the desired concentration.
as §6

Aphis gossypii = Aphis gossypii contact test (APHIGO c); assay type: in vivo; settings: 2.4 g/ha, 7 dat
Description: Aphis gossypii—Contact Test (APHIGO c)
as §4, §3, §5
One-leaved cotton plants (Gossypium hirsutum) heavily infested by the cotton aphid (Aphis gossypii) are treated by spraying the underside of the leaf with the active ingredient formulation in the desired concentration.
as §6

Nilaparvata lugens = Nilaparvata lugens test (NILALU); assay type: in vivo; settings: 4 ppm
Description: Nilaparvata lugens Test (NILALU)
as §4, §3, §5
Rice plants (Oryza sativa, var. Balilla) are treated by spraying with the active ingredient formulation in the desired concentration and then populated with L3 larvae of the brown planthopper (Nilaparvata lugens).
After the desired time, the feeding damage in % is determined. 100% means that no feeding damage is found; 0% means that the feeding damage to the treated plant corresponds to that of the untreated control.

- LOGP_HCOOH ([1]; acidic range, pH 2.7, 0.1% aqueous formic acid/acetonitrile): 2.98
- LOGP_NEUTRAL ([1]; neutral range, pH 7.8, 0.001 molar aqueous ammonium hydrogencarbonate/acetonitrile): 2.93
SMILES: CCS(=O)(=O)c1cc(C(F)(F)F)cnc1-c1nc2cc(C(F)(F)F)ncc2n1C [Example I-21]
- efficacy (laying of fertile eggs) (Boophilus microplus): 80%
- efficacy (kill) (Lucilia cuprina): 100%
- efficacy (kill) (Musca domestica): 95%
- efficacy (Myzus persicae [2]): 90%
- efficacy (Phaedon cochleariae): 100%
- efficacy (Spodoptera frugiperda): 100%
- % efficacy (Myzus persicae [3]): 85%
- % efficacy (Myzus persicae [4]; 2.4 g/ha): 90%
- % efficacy (Myzus persicae [4]; 12 g/ha): 98%
- % efficacy (Aphis gossypii): 98%
- % efficacy (Nilaparvata lugens; 21 dat): 90%
- % efficacy (Nilaparvata lugens; 28 dat): 100%
